Results: paper PMC10661964 (Current Drug Metabolism, 2023)

Columns and labels:
Assay type in all cases: in vitro ADME
MATE1 = molecular target: T1, MATE1 (Homo sapiens, UniProt Q96FL8); assay: MATE1 transport assay in overexpressing HEK293 cells; conditions: probe substrate metformin 20 µM
T1 construct: expressed in transfected cells; host or cells: HEK293, stably transfected
T1 sequence (Q96FL8 1-570): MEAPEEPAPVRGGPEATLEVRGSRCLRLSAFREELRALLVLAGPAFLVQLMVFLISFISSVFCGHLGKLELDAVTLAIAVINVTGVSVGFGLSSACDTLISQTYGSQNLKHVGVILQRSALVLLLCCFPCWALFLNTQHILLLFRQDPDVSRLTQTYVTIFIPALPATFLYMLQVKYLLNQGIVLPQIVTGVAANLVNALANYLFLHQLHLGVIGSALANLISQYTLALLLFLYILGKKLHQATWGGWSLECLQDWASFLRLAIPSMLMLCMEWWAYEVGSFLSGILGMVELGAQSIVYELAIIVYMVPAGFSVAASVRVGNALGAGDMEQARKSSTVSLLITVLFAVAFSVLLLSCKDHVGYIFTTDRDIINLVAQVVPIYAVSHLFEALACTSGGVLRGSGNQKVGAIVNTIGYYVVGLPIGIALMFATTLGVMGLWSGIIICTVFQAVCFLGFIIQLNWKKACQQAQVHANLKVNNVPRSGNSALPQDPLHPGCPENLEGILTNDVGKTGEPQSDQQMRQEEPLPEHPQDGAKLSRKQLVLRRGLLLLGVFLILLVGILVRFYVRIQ
Experimental: (§1) The inhibition of cytochrome P450 (CYP) isoforms and a range of cellular transporters (except multidrug and toxin extrusion [MATE] proteins), as well as the induction of CYP isoforms were investigated using previously described methods.
Supplementary Material Current Drug Metabolism, 2023, Vol. 24, No. 8 iii […]
-, not determined; BCRP, breast cancer resistance protein; P-gp, P-glycoprotein; MATE, multidrug and toxin extrusion. aThe highest test concentration of 20 µM was not valid in this assay for technical reasons.
OAT, organic anion transporter; OATP, organic anion transporting polypeptide; OCT, organic cation transporters.
After thawing from frozen storage, aliquots of approximately 3 x 10^6 cells of human embryonic kidney (HEK293) cell line stable overex-pressing MATE1 or MATE2K were transferred to cell culture dishes containing 10 mL of DMEM-medium (supplemented with 10% FBS, 1% penicillin [10.000 U/mL]/streptomycin [10 mg/mL] and hygromycin B [150 µg/mL]) at 37°C. Transporter-transfected and vector-transfected HEK cells were grown on cell culture dishes at 37°C in a humidified 5% CO 2 atmosphere. All cell lines were confirmed free from mycoplasma by routine testing with conventional PCR. Cell cultures were split when they had grown to confluency. For passaging, cells were washed with PBS, exposed to trypsin-EDTA for 5 min at room temperature, collected by centrifugation, resuspended in culture medium and […]
MATE1 and MATE2K Transport Assays
Transporter-transfected and vector-transfected cells were prepared for use in uptake assays by harvesting and plating into 24-well-plates pre-coated with poly-D-lysine hydrobromide at a density of 2 x 10^5 cells/well and then cultured for 3 days in DMEM growth medium (high glucose, 10% FBS, 1% penicillin/streptomycin). For uptake assays, the growth medium was aspirated and each plate well was rinsed twice with HBSS supplemented with 20 mM HEPES, pH 7.4. The intracellular environment was acidified by preincubation in 30 mM NH4Cl in buffer pH 7.4 at 37°C for 30 min. […]

OATP1B1 = molecular target: T2, OATP1B1 (Homo sapiens, UniProt Q9Y6L6); assay: Uptake transporter inhibition; conditions: probe substrate pravastatin
T2 sequence (Q9Y6L6 1-691): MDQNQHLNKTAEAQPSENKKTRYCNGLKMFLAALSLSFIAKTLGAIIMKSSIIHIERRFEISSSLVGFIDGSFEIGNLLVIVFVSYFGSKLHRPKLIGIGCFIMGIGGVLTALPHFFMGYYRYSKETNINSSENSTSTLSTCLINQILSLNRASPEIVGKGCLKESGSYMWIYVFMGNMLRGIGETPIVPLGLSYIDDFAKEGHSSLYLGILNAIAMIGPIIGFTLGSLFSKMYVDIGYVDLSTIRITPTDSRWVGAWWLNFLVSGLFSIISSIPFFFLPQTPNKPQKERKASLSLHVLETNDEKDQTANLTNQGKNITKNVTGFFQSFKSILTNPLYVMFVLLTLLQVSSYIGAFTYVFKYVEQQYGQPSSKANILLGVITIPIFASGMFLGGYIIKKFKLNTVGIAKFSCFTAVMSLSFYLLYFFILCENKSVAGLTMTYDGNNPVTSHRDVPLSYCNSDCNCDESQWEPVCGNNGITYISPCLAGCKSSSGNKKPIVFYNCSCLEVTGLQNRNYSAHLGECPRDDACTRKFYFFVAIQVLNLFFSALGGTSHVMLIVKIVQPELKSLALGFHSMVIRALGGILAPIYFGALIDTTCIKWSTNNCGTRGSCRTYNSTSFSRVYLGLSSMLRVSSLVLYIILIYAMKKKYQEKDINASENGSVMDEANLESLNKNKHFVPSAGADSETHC
From the text: as §1

OCT2 = molecular target: T3, OCT2 (Homo sapiens, UniProt O15244); assay: Uptake transporter inhibition; conditions: probe substrate 1-methyl-4-phenylpyridinium
T3 sequence (O15244 1-555): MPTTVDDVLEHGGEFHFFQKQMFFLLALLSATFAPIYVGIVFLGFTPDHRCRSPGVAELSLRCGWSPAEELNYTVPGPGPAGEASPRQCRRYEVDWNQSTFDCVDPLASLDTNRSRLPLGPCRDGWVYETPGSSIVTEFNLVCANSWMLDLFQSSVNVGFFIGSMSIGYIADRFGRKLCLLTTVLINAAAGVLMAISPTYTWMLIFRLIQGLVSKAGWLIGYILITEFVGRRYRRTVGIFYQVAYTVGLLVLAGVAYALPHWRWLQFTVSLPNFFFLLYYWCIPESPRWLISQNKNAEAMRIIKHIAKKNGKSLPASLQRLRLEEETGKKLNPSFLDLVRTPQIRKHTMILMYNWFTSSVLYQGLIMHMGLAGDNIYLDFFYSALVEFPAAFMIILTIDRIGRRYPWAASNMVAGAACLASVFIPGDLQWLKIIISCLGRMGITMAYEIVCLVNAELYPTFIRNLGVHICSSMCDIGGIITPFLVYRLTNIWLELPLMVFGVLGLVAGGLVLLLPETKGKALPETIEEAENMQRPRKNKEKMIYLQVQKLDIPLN
From the text: as §1

Row | Structure (SMILES) | IC50 (MATE1) [µM] | IC50 (OATP1B1) [µM] | IC50 (OCT2) [µM]
1 | CC1CS(=O)(=O)CCN1n1cc(SCC(N)C(=O)O)ccc1=O (stereo not drawn) [M-4] | > 5 | > 20 | > 5
2 | CC1CS(=O)(=O)CCN1/N=C/c1ccc([N+](=O)[O-])o1 (stereo not drawn) [Nifurtimox, (E)-N-(3-methyl-1,1-dioxo-1,4-thiazinan-4-yl)-1-(5-nitrofuran-2-yl) methanimine, reference compound] | > 20 | > 50 | > 20
3 | CC1CS(=O)(=O)CCN1N (stereo not drawn) [M-6] | > 30 | > 50 | > 30
